In BindingDB's records for patent WO2025049746 (Eikon Therapeutics, 2025) one finds IC50 data, which are given here for 37 molecules.

Assay [1] addresses T1, Bifunctional 3'-5' exonuclease/ATP-dependent helicase WRN [480-1251] (UniProt Q14191).
T1 construct: 480-1251
Kind of assay: Biochemical Activity Assays. The protocol:
The pure fractions were pooled and desalted/buffer exchanged into storage buffer using a HiTrap desalting column. […] First, WRN alone was pre-incubated with DMSO or compound of interest for 15 minutes. To initiate the reaction, ATP, dsDNA substrate, and ssDNA competitor (ssDNA_comp: […]) were added and incubated at room temperature for 20 minutes at which point DNA unwinding activity was monitored by measuring Cy3 fluorescence. After obtaining the reading, the ATPase activity was measured using the ADP-Glo Kinase Assay following the manufacturers recommended protocol. […] Compounds were assayed in a 10-point dose response in duplicate at a 1% DMSO final assay concentration.

The target in assay [2] is Bifunctional 3'-5' exonuclease/ATP-dependent helicase WRN (Homo sapiens, UniProt Q14191). Kind of assay: ADP-Glo Kinase Assay. The method, then:
ATPase activity was measured using the ADP-Glo Kinase Assay following the manufacturers recommended protocol.
A general note: ADP-Glo first removes unused ATP, then detects ADP through luciferase.

T1 sequence (Q14191 480-1251): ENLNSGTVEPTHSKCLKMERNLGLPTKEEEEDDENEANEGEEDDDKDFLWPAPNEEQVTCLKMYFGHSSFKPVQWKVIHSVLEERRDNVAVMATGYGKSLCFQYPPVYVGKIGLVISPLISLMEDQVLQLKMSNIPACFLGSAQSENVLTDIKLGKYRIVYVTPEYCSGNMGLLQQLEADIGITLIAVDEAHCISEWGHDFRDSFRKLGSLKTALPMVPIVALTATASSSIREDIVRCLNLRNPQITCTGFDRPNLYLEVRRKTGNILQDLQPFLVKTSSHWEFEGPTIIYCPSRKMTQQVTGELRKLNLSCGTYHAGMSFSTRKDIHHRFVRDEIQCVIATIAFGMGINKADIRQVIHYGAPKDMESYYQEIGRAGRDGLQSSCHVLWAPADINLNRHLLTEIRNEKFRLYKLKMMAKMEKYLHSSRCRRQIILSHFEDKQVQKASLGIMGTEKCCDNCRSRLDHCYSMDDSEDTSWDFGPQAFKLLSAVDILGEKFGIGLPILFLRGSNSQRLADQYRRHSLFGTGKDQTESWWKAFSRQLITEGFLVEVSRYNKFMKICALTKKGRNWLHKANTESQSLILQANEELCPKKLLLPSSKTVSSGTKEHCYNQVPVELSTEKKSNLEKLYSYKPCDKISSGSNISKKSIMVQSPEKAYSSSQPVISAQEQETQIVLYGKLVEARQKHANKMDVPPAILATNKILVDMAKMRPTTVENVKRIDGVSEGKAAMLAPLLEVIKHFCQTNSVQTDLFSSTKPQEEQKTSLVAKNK
Chain of Bifunctional 3'-5' exonuclease/ATP-dependent helicase WRN (Q14191 whole entry): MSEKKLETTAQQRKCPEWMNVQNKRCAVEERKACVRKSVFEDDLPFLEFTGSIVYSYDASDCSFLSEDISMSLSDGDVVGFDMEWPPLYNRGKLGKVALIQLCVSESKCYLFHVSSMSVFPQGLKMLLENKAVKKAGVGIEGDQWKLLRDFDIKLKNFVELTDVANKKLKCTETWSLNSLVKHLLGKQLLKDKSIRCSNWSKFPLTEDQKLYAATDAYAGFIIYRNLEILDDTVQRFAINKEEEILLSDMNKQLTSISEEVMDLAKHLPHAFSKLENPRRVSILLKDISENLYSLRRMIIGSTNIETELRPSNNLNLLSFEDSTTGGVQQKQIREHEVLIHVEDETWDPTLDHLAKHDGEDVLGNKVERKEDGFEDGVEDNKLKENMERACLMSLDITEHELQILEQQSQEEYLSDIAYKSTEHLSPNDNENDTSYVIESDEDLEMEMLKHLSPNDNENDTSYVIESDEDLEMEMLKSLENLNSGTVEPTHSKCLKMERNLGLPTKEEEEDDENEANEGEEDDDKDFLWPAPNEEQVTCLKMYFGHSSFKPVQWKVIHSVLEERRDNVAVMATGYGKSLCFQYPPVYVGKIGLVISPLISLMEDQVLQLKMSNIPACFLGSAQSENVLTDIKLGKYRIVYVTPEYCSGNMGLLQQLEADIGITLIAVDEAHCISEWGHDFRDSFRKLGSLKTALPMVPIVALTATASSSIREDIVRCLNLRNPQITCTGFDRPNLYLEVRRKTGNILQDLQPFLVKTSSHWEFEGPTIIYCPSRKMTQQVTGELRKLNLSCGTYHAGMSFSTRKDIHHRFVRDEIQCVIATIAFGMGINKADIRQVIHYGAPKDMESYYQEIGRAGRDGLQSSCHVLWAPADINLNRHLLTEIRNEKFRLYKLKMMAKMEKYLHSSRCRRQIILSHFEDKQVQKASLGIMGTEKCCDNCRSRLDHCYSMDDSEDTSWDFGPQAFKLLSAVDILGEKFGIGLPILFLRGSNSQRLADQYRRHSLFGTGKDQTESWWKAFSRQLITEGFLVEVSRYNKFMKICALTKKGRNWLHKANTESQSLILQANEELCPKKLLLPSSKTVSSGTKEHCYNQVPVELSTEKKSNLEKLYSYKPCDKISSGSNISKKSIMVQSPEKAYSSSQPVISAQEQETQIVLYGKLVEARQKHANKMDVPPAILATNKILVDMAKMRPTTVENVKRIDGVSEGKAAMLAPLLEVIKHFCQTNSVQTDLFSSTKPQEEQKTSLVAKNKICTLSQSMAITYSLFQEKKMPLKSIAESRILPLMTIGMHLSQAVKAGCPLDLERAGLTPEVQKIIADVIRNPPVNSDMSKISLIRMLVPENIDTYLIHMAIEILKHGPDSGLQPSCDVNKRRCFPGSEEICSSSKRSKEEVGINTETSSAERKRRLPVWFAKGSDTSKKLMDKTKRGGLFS

One may read the IC50 as the concentration at which inhibition is half-maximal. Higher therefore signals weaker potency in that assay. With `CCc1c(N2CCN(C(=O)c3ncnc(C)c3O)CC2)c(=O)n2nc(N3CCC(=C(F)F)CC3)nc2n1CC(=O)Nc1ccc(C(F)(F)F)cc1Cl` [WO2025049746, Example 205], the IC50 in assay [1] came out at 27 nM; in assay [2], 36 nM.

With `CCc1c(N2CCN(C(=O)c3ncnc(C)c3O)CC2)c(=O)n2nc(N(C)C)nc2n1CC(=O)Nc1ccc(SC(F)(F)F)cc1Cl` [WO2025049746, Example 396], the IC50 in assay [1] is 36 nM; in assay [2], 42 nM.

Take `CCc1c(N2CCN(C(=O)c3ccccc3NS(=O)(=O)C3CC3)CC2)c(=O)n2nc(-c3ccc4c(c3)OCO4)nc2n1CC(=O)Nc1ccc(C(F)(F)F)cc1Cl` [WO2025049746, Example 87]: the half-inhibitory concentration (IC50) in assay [1] was determined as 138 nM; in assay [2], 159 nM.

Regarding `CCc1c(N2CCN(C(=O)c3ncnc(C)c3O)CC2)c(=O)n2nc(-c3ccc4c(c3)C(C)CO4)nc2n1CC(=O)Nc1ccc(C(F)(F)F)cc1Cl` (centres undefined) [WO2025049746, Example 170], the IC50 in assay [1] came to 41 nM; in assay [2] it was 51 nM.

Consider `CCc1c(N2CCN(C(=O)c3ncnc(C)c3O)CC2)c(=O)n2nc(-c3cc4c(cc3F)C(C)(C)OC4)nc2n1CC(=O)Nc1ccc(C(F)(F)F)cc1Cl` [WO2025049746, Example 211], for which the IC50 turned out to be 32 nM in assay [1] and 36 nM in assay [2].

Take `CCc1c(N2CCN(C(=O)c3ncnc(C)c3O)CC2)c(=O)n2nc(-c3cc4c(cc3C)OCC4)nc2n1CC(=O)Nc1ccc(C(F)(F)F)cc1Cl` [WO2025049746, Example 174]: the IC50 in assay [1] is 31 nM; in assay [2], 59 nM.

Regarding `CCc1c(N2CCN(C(=O)c3ncnc(C)c3O)CC2)c(=O)n2nc(-c3cc4ccnn4cc3F)nc2n1CC(=O)Nc1ccc(C(F)(F)F)cc1Cl` [WO2025049746, Example 242], the values for the IC50 in assay [1] and in assay [2] were 18 nM and 19 nM, respectively.

In the case of `CCc1c(N2CCN(C(=O)c3nccc4nc[nH]c34)CC2)c(=O)n2nc(N(C)C)nc2n1CC(=O)Nc1ccc(C(F)(F)F)cc1Cl` [WO2025049746, Example 80], the IC50 in assay [1] worked out at 26.9 nM; in assay [2] it was 43.3 nM.

For `CCc1c(N2CCN(C(=O)c3ncnc(C)c3O)CC2)c(=O)n2nc(-c3ccn4c(C)ncc4c3)nc2n1CC(=O)Nc1ccc(C(F)(F)F)cc1Cl` [WO2025049746, Example 218], the figures for the 50% inhibitory concentration (IC50) in assay [1] and in assay [2] were 34 nM and 44 nM, respectively.

Turning to `CCc1c(N2CCN(C(=O)c3ncnc(C)c3O)CC2)c(=O)n2nc(-c3ccc4c(c3)OCCO4)nc2n1CC(=O)Nc1ccc(C(F)(F)F)cc1Cl` [WO2025049746, Example 1], the results for the IC50 in assay [1] and in assay [2] were 20.7 nM and 23.6 nM, respectively.

Turning to `CCc1c(N2CCN(C(=O)c3nccc4nc[nH]c34)CC2)c(=O)n2nc(-c3ccc4c(c3)OCO4)nc2n1CC(=O)Nc1ccc(C(F)(F)F)cc1Cl` [WO2025049746, Example 88], the results for the IC50 in assay [1] and in assay [2] were 28.9 nM and 48.8 nM, respectively.

`CCc1c(N2CCN(C(=O)c3ccccc3NS(=O)(=O)C3CC3)CC2)c(=O)n2nc(C3=CCOCC3)nc2n1CC(=O)Nc1ccc(C(F)(F)F)cc1Cl` [WO2025049746, Example 39]: the values for the IC50 in assay [1] and in assay [2] were 33 nM and 45.7 nM, respectively.

Regarding `CCc1c(N2CCN(C(=O)c3cc4nnn(C)c4cc3O)CC2)c(=O)n2nc(-c3ccc4c(c3)COC4)nc2n1CC(=O)Nc1ccc(C(F)(F)F)cc1Cl` [WO2025049746, Example 433], the IC50 worked out at 109 nM in assay [1] and 138 nM in assay [2].

`CCc1c(N2CCN(C(=O)c3ncnc(C)c3O)CC2)c(=O)n2nc(-c3coc4ccccc34)nc2n1CC(=O)Nc1ccc(C(F)(F)F)cc1Cl` [WO2025049746, Example 327]: the IC50 in assay [1] stood at 56 nM; in assay [2], 30 nM.

Turning to `CCc1c(N2CCN(C(=O)c3ncnc(C)c3O)CC2)c(=O)n2nc(-c3ccc4nn(C(F)F)cc4c3)nc2n1CC(=O)Nc1ccc(C(F)(F)F)cc1Cl` [WO2025049746, Example 248], the IC50 in assay [1] came out at 26 nM; in assay [2], 24 nM.

Take `CCc1c(N2CCN(C(=O)c3ncnc(C)c3O)CC2)c(=O)n2nc(-c3ccc4c(c3)CC(C)(C)O4)nc2n1CC(=O)Nc1ccc(C(F)(F)F)cc1Cl` [WO2025049746, Example 194]: the IC50 in assay [1] worked out at 67 nM; in assay [2] it was 81 nM.

Turning to `CCc1c(N2CCN(C(=O)c3ncnc(C)c3O)CC2)c(=O)n2nc(-c3cc(F)c4nn(C)cc4c3)nc2n1CC(=O)Nc1ccc(C(F)(F)F)cc1Cl` [WO2025049746, Example 287], the IC50 in assay [1] was 29 nM; in assay [2], 28 nM.

Consider `Cc1ncnc(C(=O)N2CCN(c3c4n(c5nc(-c6ccc7c(c6)COC7(C)C)nn5c3=O)[C@@H](C(=O)Nc3ccc(C(F)(F)F)cc3Cl)C[C@H]4C)CC2)c1O` [WO2025049746, Example 470], for which the IC50 was 34.6 nM in assay [1] and 32.4 nM in assay [2].

Take `CCc1c(N2CCN(C(=O)c3ncnc(C)c3O)CC2)c(=O)n2nc(N3CCCOCC3)nc2n1CC(=O)Nc1ccc(C(F)(F)F)cc1Cl` [WO2025049746, Example 25]: the IC50 was found to be 48.8 nM in assay [1] and 63.9 nM in assay [2].

Regarding `CCc1c(N2CC[C@@H](C)N(C(=O)c3ncnc(C)c3O)CC2)c(=O)n2nc(-c3ccc4c(c3)COC4(C)C)nc2n1CC(=O)Nc1ccc(C(F)(F)F)cc1Cl` [WO2025049746, Example 461], the IC50 was 50 nM in assay [1] and 45 nM in assay [2].

As for `CCc1c(N2CCN(C(=O)c3ncnc(C)c3O)CC2)c(=O)n2nc(-c3cn4c(n3)COCC4)nc2n1CC(=O)Nc1ccc(C(F)(F)F)cc1Cl` [WO2025049746, Example 153], the figures for the IC50 in assay [1] and in assay [2] were 165 nM and 168 nM, respectively.

For the molecule `CCc1c(N2CCN(C(=O)c3ncnc(C)c3O)CC2)c(=O)n2nc(-c3ccn4ncnc4c3)nc2n1CC(=O)Nc1ccc(C(F)(F)F)cc1Cl` [WO2025049746, Example 220], the IC50 in assay [1] was found to be 96 nM; in assay [2], 111 nM.

On to `CCc1c(N2CCN(C(=O)c3ncnc(C)c3O)CC2)c(=O)n2nc(-c3cccc4c3OCC4)nc2n1CC(=O)Nc1ccc(C(F)(F)F)cc1Cl` [WO2025049746, Example 158], for which the figures for the IC50 in assay [1] and in assay [2] were 49 nM and 71 nM, respectively.

Turning to `CCc1c(N2CCN(C(=O)c3nc4c(cc3O)COCC4)CC2)c(=O)n2nc(-c3ccc4c(c3)COC4)nc2n1CC(=O)Nc1ccc(C(F)(F)F)cc1Cl` [WO2025049746, Example 440], the results for the IC50 in assay [1] and in assay [2] were 48 nM and 46 nM, respectively.

In the case of `CCc1c(N2CC[C@@H](C)N(C(=O)c3ncnc(C)c3O)CC2)c(=O)n2nc(C3=CCOCC3)nc2n1CC(=O)Nc1ccc(C(F)(F)F)cc1Cl` [WO2025049746, Example 341], the IC50 came to 67 nM in assay [1] and 80 nM in assay [2].

For the molecule `CCc1c(N2CCN(C(=O)c3ncccc3N=S3(=O)CCC3)CC2)c(=O)n2nc(C3=CCOCC3)nc2n1CC(=O)Nc1ccc(C(F)(F)F)cc1Cl` [WO2025049746, Example 37], the IC50 came out at 56.2 nM in assay [1] and 86.3 nM in assay [2].

Regarding `CCc1c(N2CCN(C(=O)c3ncnc(C)c3O)CC2)c(=O)n2nc(-c3ccc4c(c3)CCOC4)nc2n1CC(=O)Nc1ccc(SC(F)(F)F)cc1Cl` [WO2025049746, Example 395], the IC50 in assay [1] was 35 nM; in assay [2], 43 nM.

For the molecule `CCc1c(N2CCN(C(=O)c3ncnc(C)c3O)CC2)c(=O)n2nc(-c3ccc4c(c3)C[C@@H](OC)C4)nc2n1CC(=O)Nc1ccc(C(F)(F)F)cc1Cl` [WO2025049746, Example 182], the IC50 in assay [1] is 31 nM; in assay [2], 37 nM.

As for `CCc1c(N2CCN(C(=O)c3nc4c(cc3O)OCC4)CC2)c(=O)n2nc(-c3ccc4c(c3)COC4)nc2n1CC(=O)Nc1ccc(C(F)(F)F)cc1Cl` [WO2025049746, Example 435], the IC50 in assay [1] is 50 nM; in assay [2] it was 61 nM.

As to `CCc1c(N2CCN(C(=O)c3ncnc(C)c3O)CC2)c(=O)n2nc(-c3ccc4c(c3)C(C)(C)OC4(C)C)nc2n1CC(=O)Nc1ccc(C(F)(F)F)cc1Cl` [WO2025049746, Example 172], the IC50 in assay [1] stood at 87 nM; in assay [2] it was 124 nM.

Regarding `CCc1c(N2CCN(C(=O)c3ncnc(C)c3O)CC2)c(=O)n2nc(N3CCC3)nc2n1CC(=O)Nc1ccc(C(F)(F)F)c2c1CC2` [WO2025049746, Example 377], the figures for the IC50 in assay [1] and in assay [2] were 32 nM and 45 nM, respectively.

Regarding `CCc1c(N2CCN(C(=O)c3ncnc(C)c3O)CC2)c(=O)n2nc(-c3ccc4c(c3)C[C@@H](C)O4)nc2n1CC(=O)Nc1ccc(C(F)(F)F)cc1Cl` [WO2025049746, Example 231], the IC50 worked out at 49 nM in assay [1] and 40 nM in assay [2].

Take `CCc1c(N2CCN(C(=O)c3ncnc(C)c3O)CC2)c(=O)n2nc(-c3ccc4c(c3)COC4)nc2n1CC(=O)Nc1ccc(C=C(F)F)cc1Cl` [WO2025049746, Example 421]: the IC50 turned out to be 25 nM in assay [1] and 30 nM in assay [2].

With `CCc1c(N2CCN(C(=O)c3ncnc(C)c3O)CC2)c(=O)n2nc(-c3ccn4nccc4c3C)nc2n1CC(=O)Nc1ccc(C(F)(F)F)cc1Cl` [WO2025049746, Example 239], the IC50 in assay [1] turned out to be 22 nM; in assay [2], 21 nM.

In the case of `CCc1c(N2CCN(C(=O)c3ncnc(C)c3O)CC2)c(=O)n2nc(-c3cc(F)c4ncccc4c3F)nc2n1CC(=O)Nc1ccc(C(F)(F)F)cc1Cl` [WO2025049746, Example 320], the IC50 in assay [1] turned out to be 22 nM; in assay [2], 19 nM.

For the molecule `CCc1c(N2CCN(C(=O)c3ncnc(C)c3O)CC2)c(=O)n2nc(-c3cccc4c3cnn4C)nc2n1CC(=O)Nc1ccc(C(F)(F)F)cc1Cl` [WO2025049746, Example 22], the IC50 turned out to be 29.4 nM in assay [1] and 37.1 nM in assay [2].

For `CCc1c(N2CCN(C(=O)c3ncnc(C)c3O)CC2)c(=O)n2nc(-c3ccc4nn(C)nc4c3)nc2n1CC(=O)Nc1ccc(C(F)(F)F)cc1Cl` [WO2025049746, Example 301], the IC50 came to 35 nM in assay [1] and 33 nM in assay [2].
